Test results: patent publication US20220087987A1, “A METHOD FOR TREATING SWI/SNF COMPLEX-DEFICIENT CANCERS COMPRISING GLUTATHIONE (GSH) METABOLIC PATHWAY INHIBITOR” (National Cancer Center, priority 2018, published 2022)
Like-named read-outs stand apart in the source and are kept apart here.

Columns and labels:
[1] = system: ARID1A-WT HCT116 cells; assay: Drug library screen, cell viability (CellTiter-Glo); assay type: cell-based, human
Procedure: (§1) ARID1A-WT and ARID1A-KO HCT116 cancer cells were used for screening assays. […] Cell viability was assessed after 5 days using the CellTiter-Glo Luminescent Cell Viability Assay (Promega). Luminescence was measured using an Envision Multi-label plate reader (PerkinElmer). The luminescence reading was used to determine the cell viability relative to that of cells treated with solvent (DMSO). Candidate compounds were considered if viability of ARID1A-KO cells was less than […] was more than 80%.

[2] = system: ARID1A-KO HCT116 cells; assay: as above; assay type: cell-based, human
Procedure: as §1

[3] = HCT116 ARID1A-WT, 10 μM for 5 days, relative to cells treated with solvent (DMSO)
[4] = HCT116 ARID1A-KO, 10 μM for 5 days, relative to cells treated with solvent (DMSO)

Row | SMILES | Cell viability, WT [1, 3] | Cell viability, KO [2, 4] | Cell viability, WT [1] | Cell viability, KO [2]
1 | O=c1cc(N2CCOCC2)oc2c(-c3ccccc3)cccc12 [LY294002] | 127.2893 | 119.3969 |  | 
2 | Cc1cccc(-c2nn3c(c2-c2ccnc4ccc(C(N)=O)cc24)CCC3)n1 [LY2157299] | 91.31 | 113.5072 |  | 
3 | O=C1C(Nc2ccccc2)=CC(=O)c2ncccc21 [LY 83583] | 4.357 | 4.788 |  | 
4 | CCC(=C/[C@H](C)C/C=C/C(C)=C/[C@@H](C)C(=O)[C@@H](C)[C@H](O)[C@@H](C)C/C(C)=C/C(=O)O)/C=C/[C@@H]1OC(=O)C=C[C@@H]1C [Leptomycin B*, Leptomycin B] | 5.031 | 4.969 |  | 
5 | CC(C)c1ccc2c(c1)c(SC(C)(C)C)c(CC(C)(C)C(=O)O)n2Cc1ccc(Cl)cc1 [MK 886] | 116.7328 | 112.1339 |  | 
6 | O=S(=O)(c1cccc2c(I)cccc12)N1CCCNCC1 [ML-7] | 76.67 | 78.88 |  | 
7 | O=C(Nc1cccc(NC(=O)c2cccc(O)c2O)c1)c1cccc(O)c1O [MST-312] | 7.363 | 7.703 |  | 
8 | CCCC[C@@H](C)/C=C(C)/C=C(\C)C(=O)NC1=C[C@@](O)(/C=C/C=C/C=C/C(=O)NC2=C(O)CCC2=O)[C@@H]2O[C@@H]2C1=O [Manumycin A] | 61.22 | 52.57 |  | 
9 | CCNCCCNCCCCNCCCNCC [N1,N12-Diethylspermine (BESpm), N1,N12-Diethylspermine] | 32.23 | 37.8 |  | 
10 | O=C1C(SCCO)=C(SCCO)C(=O)c2ccccc21 [NSC95397] | 41.93 | 15.8033 |  | 
11 | COc1ccc(OC)c2c(=S)c3ccccc3[nH]c12 [NSC625987] | 136.0173 | 161.7582 |  | 
12 | Cc1nc2c(O)cccc2c(=O)[nH]1 [NU1025] | 174.885 | 123.2356 |  | 
13 | NS(=O)(=O)c1ccc(Nc2nc(OCC3CCCCC3)c3[nH]cnc3n2)cc1 [NU6102] | 112.51 | 124.8924 |  | 
14 | COc1ccc(C2=N[C@@H](c3ccc(Cl)cc3)[C@@H](c3ccc(Cl)cc3)N2C(=O)N2CCNC(=O)C2)c(OC(C)C)c1 [Nutlin-3] | 23.89 | 25.82 |  | 
15 | CCCCCCCCCCCCCCCCCCc1ccc(C(=O)/C=C/C(=O)O)cc1 [OBAA] | 199.8448 | 110.9715 |  | 
16 | O=c1onc2cnc3ccccc3n12 [ODQ] | 84.47 | 84.9 |  | 
17 | C=CCc1cccc(/C=N/NC(=O)CN2CCN(Cc3ccccc3)CC2)c1O [PAC-1] | 6.045 | 9.44 |  | 
18 | COc1ccc(Cn2ccc3ccc(C(=O)NO)cc32)cc1 [PCI-34051] | 71.67 | 72.3 |  | 
19 | O=[N+]([O-])c1ccc(-c2nc(-c3ccc(F)cc3)c(-c3ccncc3)[nH]2)cc1 [PD169316] | 161.5329 | 151.5532 |  | 
20 | CCN(CC)CCCCNc1ncc2cc(-c3cc(OC)cc(OC)c3)c(NC(=O)NC(C)(C)C)nc2n1 [PD173074] | 8.446 | 7.568 |  | 
21 | COc1cccc(-c2cc(=O)c3ccccc3o2)c1N [PD 98059] | 168.8128 | 111.8217 |  | 
22 | OCCn1cc(-c2cnc3nnn(Cc4ccc5ncccc5c4)c3n2)cn1 [PF-04217903] | 86.5829 | 93.9615 |  | 
23 | O=C(Cc1ccccc1)Nc1c2c(nc3ccccc13)N(Cc1ccccc1)CC2 [PGP-4008] | 106.0362 | 117.1066 |  | 
24 | CN(C)CC(=O)Nc1ccc2[nH]c(=O)c3ccccc3c2c1 [PJ-34] |  |  | 18.28 | 15.94
25 | O=C1Nc2ccc3ncsc3c2/C1=C/c1cnc[nH]1 [PKR inhibitor] |  |  | 8.714 | 16.84
